PubChem BioAssay AID330 (DTP/NCI, 2004)
Where “and” joins values, the source holds several entries; their conditions need not be identical. Equal entries are not always repeated. Toxic doses and inconclusive results are not listed.

System: P388 leukemia ip, CD2F1 mice, survival T/C
Experiment: NCI In Vivo Anticancer Drug Screen. Data for tumor model P388 Leukemia (intraperitoneal) in CD2F1 (CDF1) mice
Conditions: endpoint: median survival time, higher = longer survival
In short: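 Mice carrying the transplanted tumor received test compound or vehicle. Survival was recorded in each group, and the value is the treated-group measurement divided by that of the vehicle-treated control group.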

[1] = dose: 50.0 mg/kg/injection, schedule: Q01DX009 (ip), vehicle: saline
[2] = dose: 100.0 mg/kg/injection, schedule: Q01DX009 (ip), vehicle: saline
[3] = dose: 200.0 mg/kg/injection, schedule: Q01DX009 (ip), vehicle: saline
[4] = dose: 200.0 mg/kg/injection, schedule: Q04DX003 (ip), vehicle: saline
[5] = dose: 400.0 mg/kg/injection, schedule: Q04DX003 (ip), vehicle: saline
[6] = dose: 25.0 mg/kg/injection, schedule: Q01DX009 (ip), vehicle: Klucel (hydroxypropylcellulose) (HPC)
[7] = dose: 50.0 mg/kg/injection, schedule: Q01DX009 (ip), vehicle: Klucel (hydroxypropylcellulose) (HPC)
[8] = dose: 100.0 mg/kg/injection, schedule: Q01DX009 (ip), vehicle: Klucel (hydroxypropylcellulose) (HPC)

Question: How did the T/C (dose: 3.12 mg/kg/injection, schedule: Q01DX005 (ip), vehicle: saline with Tween-80) turn out when `CN=C(NC)c1ccc(NC(=O)c2cc(C)cc(C(=O)Nc3ccc(C(=NC)NC)cc3)c2)cc1` was run?
Answer: 103 % of control

Question: And the T/C (dose: 6.25 mg/kg/injection, schedule: Q01DX005 (ip), vehicle: saline with Tween-80)?
Answer: 105 % of control

Question: What about the T/C (dose: 12.5 mg/kg/injection, schedule: Q01DX005 (ip), vehicle: saline with Tween-80) of the same compound?
Answer: 107 % of control

Question: What does the source list for `CCO/C=C1\CC(=O)N(c2ccc(F)c(Cl)c2)C1=O`?
Answer: T/C (dose: 25.0 mg/kg/injection, schedule: Q01DX001 (ip), vehicle: saline with Tween-80): 100 % of control; T/C (dose: 50.0 mg/kg/injection, schedule: Q01DX001 (ip), vehicle: saline with Tween-80): 100 % of control; T/C (dose: 100.0 mg/kg/injection, schedule: Q01DX001 (ip), vehicle: saline with Tween-80): 98 % of control and 100 % of control; T/C (dose: 200.0 mg/kg/injection, schedule: Q01DX001 (ip), vehicle: saline with Tween-80): 109 % of control; T/C (dose: 400.0 mg/kg/injection, schedule: Q01DX001 (ip), vehicle: saline with Tween-80): 100 % of control

Question: Which T/C (dose: 50.0 mg/kg/injection, schedule: Q01DX005 (ip), vehicle: saline with Tween-80) does the source give for `Cc1ccccc1NP1(=O)OCCCN1Cc1ccc(Cl)c(Cl)c1` (stereo unspecified) here?
Answer: 100 % of control

Question: And the T/C (dose: 100.0 mg/kg/injection, schedule: Q01DX005 (ip), vehicle: saline with Tween-80)?
Answer: 98 % of control

Question: What about the T/C (dose: 200.0 mg/kg/injection, schedule: Q01DX005 (ip), vehicle: saline with Tween-80) of the same compound?
Answer: 93 % of control

Question: Which T/C [1] does the source give for `C[Si](C)(c1ccc(Cl)cc1)c1ccc(Cl)cc1` here?
Answer: 97 % of control

Question: What about the T/C [2] of the same compound?
Answer: 100 % of control

Question: What about the T/C [3] of the same compound?
Answer: 99 % of control

Question: What does the source list for `CN1CCN(CN2C(=O)C3C4C=CC(C3C2=O)C2C3C(=O)N(CN5CCN(C)CC5)C(=O)C3C42)CC1` (stereo unspecified)?
Answer: T/C (dose: 6.25 mg/kg/injection, schedule: Q01DX009 (ip), vehicle: water): 103 % of control; T/C (dose: 7.5 mg/kg/injection, schedule: Q01DX005 (ip), vehicle: water): 100 % of control; T/C (dose: 7.5 mg/kg/injection, schedule: Q01DX009 (ip), vehicle: water): 99 % of control; T/C (dose: 12.5 mg/kg/injection, schedule: Q01DX009 (ip), vehicle: water): 104 % of control; T/C (dose: 15.0 mg/kg/injection, schedule: Q01DX005 (ip), vehicle: water): 101 % of control and 96 % of control; T/C (dose: 15.0 mg/kg/injection, schedule: Q01DX009 (ip), vehicle: water): 105 % of control; T/C (dose: 24.8 mg/kg/injection, schedule: Q01DX009 (ip), vehicle: water): 113 % of control; T/C (dose: 25.0 mg/kg/injection, schedule: Q01DX009 (ip), vehicle: saline): 99 % of control; T/C (dose: 25.0 mg/kg/injection, schedule: Q01DX009 (ip), vehicle: water): 104 % of control; T/C (dose: 26.8 mg/kg/injection, schedule: Q01DX009 (ip), vehicle: water): 106 % of control and 118 % of control; T/C (dose: 30.0 mg/kg/injection, schedule: Q01DX005 (ip), vehicle: water): 107 % of control and 119 % of control; T/C (dose: 30.0 mg/kg/injection, schedule: Q01DX009 (ip), vehicle: water): 116 % of control and 121 % of control; T/C (dose: 44.6 mg/kg/injection, schedule: Q01DX009 (ip), vehicle: water): 151 % of control; T/C [1]: 106 % of control; T/C (dose: 60.0 mg/kg/injection, schedule: Q01DX005 (ip), vehicle: water): 151 % of control; T/C (dose: 60.0 mg/kg/injection, schedule: Q01DX009 (ip), vehicle: water): 165 % of control and 161 % of control; T/C (dose: 68.8 mg/kg/injection, schedule: Q01DX009 (ip), vehicle: water): 172 % of control; T/C (dose: 74.4 mg/kg/injection, schedule: Q01DX009 (ip), vehicle: water): 164 % of control and 190 % of control; T/C [2]: 211 % of control; T/C (dose: 100.0 mg/kg/injection, schedule: Q01DX009 (ip), vehicle: water): 200 % of control and 207 % of control; T/C (dose: 120.0 mg/kg/injection, schedule: Q01DX009 (ip), vehicle: water): 111 % of control; T/C (dose: 124.0 mg/kg/injection, schedule: Q01DX009 (ip), vehicle: water): 105 % of control

Question: For `O=C1c2ccncc2C(=O)c2c1[nH]c1ccccc21`, which T/C (dose: 7.5 mg/kg/injection, schedule: Q04DX002 (ip), vehicle: Klucel (hydroxypropylcellulose) (HPC)) is on record?
Answer: 97 % of control

Question: What about the T/C (dose: 15.0 mg/kg/injection, schedule: Q04DX002 (ip), vehicle: Klucel (hydroxypropylcellulose) (HPC)) of the same compound?
Answer: 95 % of control

Question: And the T/C (dose: 30.0 mg/kg/injection, schedule: Q04DX002 (ip), vehicle: Klucel (hydroxypropylcellulose) (HPC))?
Answer: 90 % of control and 97 % of control

Question: And the T/C (dose: 60.0 mg/kg/injection, schedule: Q04DX002 (ip), vehicle: Klucel (hydroxypropylcellulose) (HPC))?
Answer: 95 % of control

Question: For `CCOC(=O)CCN(CC)CC`, which T/C (dose: 88.0 mg/kg/injection, schedule: Q04DX003 (ip), vehicle: saline) is on record?
Answer: 100 % of control

Question: What about the T/C [2] of the same compound?
Answer: 116 % of control

Question: What about the T/C (dose: 132.0 mg/kg/injection, schedule: Q04DX003 (ip), vehicle: saline) of the same compound?
Answer: 95 % of control

Question: What about the T/C [3] of the same compound?
Answer: 111 % of control

Question: What about the T/C [4] of the same compound?
Answer: 109 % of control

Question: What about the T/C (dose: 300.0 mg/kg/injection, schedule: Q04DX003 (ip), vehicle: saline) of the same compound?
Answer: 109 % of control

Question: And the T/C (dose: 400.0 mg/kg/injection, schedule: Q01DX009 (ip), vehicle: saline)?
Answer: 111 % of control

Question: What about the T/C [5] of the same compound?
Answer: 100 % of control

Question: What does the source list for `Cc1ncc(S(=O)(=O)Cc2ccc3c(c2)OCO3)c(N)n1`?
Answer: T/C (dose: 100.0 mg/kg/injection, schedule: Q01DX001 (ip), vehicle: saline): 96 % of control; T/C (dose: 200.0 mg/kg/injection, schedule: Q01DX001 (ip), vehicle: saline): 95 % of control; T/C (dose: 400.0 mg/kg/injection, schedule: Q01DX001 (ip), vehicle: saline): 95 % of control

Question: Which T/C (dose: 100.0 mg/kg/injection, schedule: Q04DX003 (ip), vehicle: saline) does the source give for `Cc1ccn2cc(CC(=O)O)nc2n1` here?
Answer: 101 % of control

Question: What about the T/C [4] of the same compound?
Answer: 106 % of control

Question: And the T/C [5]?
Answer: 105 % of control

Question: How did the T/C (dose: 60.0 mg/kg/injection, schedule: Q01DX005 (ip), vehicle: saline with Tween-80) turn out when `O=[n+]1c2c(n([O-])c3cc(Cl)c(Cl)cc31)CCC2` was run?
Answer: 95 % of control

Question: What about the T/C (dose: 120.0 mg/kg/injection, schedule: Q01DX005 (ip), vehicle: saline with Tween-80) of the same compound?
Answer: 95 % of control

Question: How did the T/C (dose: 50.0 mg/kg/injection, schedule: Q01DX005 (ip), vehicle: Klucel (hydroxypropylcellulose) (HPC)) turn out when `O=C1OC(C(O)CO)C(O)C1O` (stereo unspecified) was run?
Answer: 99 % of control

Question: What about the T/C (dose: 50.0 mg/kg/injection, schedule: Q01DX005 (ip), vehicle: saline) of the same compound?
Answer: 94 % of control and 109 % of control and 102 % of control

Question: And the T/C (dose: 100.0 mg/kg/injection, schedule: Q01DX005 (ip), vehicle: Klucel (hydroxypropylcellulose) (HPC))?
Answer: 97 % of control

Question: What about the T/C (dose: 100.0 mg/kg/injection, schedule: Q01DX005 (ip), vehicle: saline) of the same compound?
Answer: 96 % of control and 105 % of control and 98 % of control

Question: And the T/C (dose: 200.0 mg/kg/injection, schedule: Q01DX005 (ip), vehicle: Klucel (hydroxypropylcellulose) (HPC))?
Answer: 101 % of control

Question: What about the T/C (dose: 200.0 mg/kg/injection, schedule: Q01DX005 (ip), vehicle: saline) of the same compound?
Answer: 96 % of control and 105 % of control

Question: How did the T/C [6] turn out when `O=C1CCN=C2C(=O)c3ccccc3C(O)=C12` was run?
Answer: 115 % of control

Question: And the T/C [7]?
Answer: 123 % of control

Question: What about the T/C [8] of the same compound?
Answer: 121 % of control

Question: What does the source list for `N/C(=N\C(=O)OCc1ccccc1)NC(=O)OCc1ccccc1`?
Answer: T/C [6]: 99 % of control and 109 % of control; T/C [7]: 104 % of control and 105 % of control; T/C [8]: 103 % of control and 104 % of control; T/C (dose: 200.0 mg/kg/injection, schedule: Q01DX009 (ip), vehicle: Klucel (hydroxypropylcellulose) (HPC)): 99 % of control and 100 % of control; T/C (dose: 400.0 mg/kg/injection, schedule: Q01DX009 (ip), vehicle: Klucel (hydroxypropylcellulose) (HPC)): 99 % of control and 93 % of control

Question: How did the T/C (dose: 6.25 mg/kg/injection, schedule: Q01DX009 (ip), vehicle: saline with Tween-80) turn out when `NC(N)=N/N=C/c1ccc(-c2ccccc2)cc1` was run?
Answer: 104 % of control

Question: And the T/C (dose: 6.25 mg/kg/injection, schedule: Q04DX003 (ip), vehicle: saline with Tween-80)?
Answer: 100 % of control

Question: And the T/C (dose: 12.5 mg/kg/injection, schedule: Q01DX009 (ip), vehicle: saline with Tween-80)?
Answer: 104 % of control

Question: And the T/C (dose: 12.5 mg/kg/injection, schedule: Q04DX003 (ip), vehicle: saline with Tween-80)?
Answer: 100 % of control

Question: And the T/C (dose: 25.0 mg/kg/injection, schedule: Q04DX003 (ip), vehicle: saline with Tween-80)?
Answer: 100 % of control

Question: With `O=C(CBr)NN=C(c1ccccc1)c1ccccc1` as the compound, how does the T/C (dose: 29.0 mg/kg/injection, schedule: Q01DX009 (ip), vehicle: saline with Tween-80) read?
Answer: 104 % of control

Question: And the T/C (dose: 58.0 mg/kg/injection, schedule: Q01DX009 (ip), vehicle: saline with Tween-80)?
Answer: 101 % of control

Question: What about the T/C (dose: 116.0 mg/kg/injection, schedule: Q01DX009 (ip), vehicle: saline with Tween-80) of the same compound?
Answer: 110 % of control

Question: Which T/C (dose: 60.0 mg/kg/injection, schedule: Q01DX005 (ip), vehicle: Klucel (hydroxypropylcellulose) (HPC)) does the source give for `O=C1C2=C(/C=C/c3ccccc3)OCCC2=NN1c1ccccc1` here?
Answer: 94 % of control

Question: What about the T/C (dose: 120.0 mg/kg/injection, schedule: Q01DX005 (ip), vehicle: Klucel (hydroxypropylcellulose) (HPC)) of the same compound?
Answer: 98 % of control

Question: What about the T/C (dose: 240.0 mg/kg/injection, schedule: Q01DX005 (ip), vehicle: Klucel (hydroxypropylcellulose) (HPC)) of the same compound?
Answer: 109 % of control
